Laboratory results published in paper PMC11642016 (International Journal of Molecular Sciences, 2024).
Where “and” joins values, the source holds several entries; their conditions need not be identical. Equal values may be shown once. Read-outs that look alike come from different tables or passages of the source.

Experiments:
[1] = CellTiter-Glo luminescent cell viability assay, primary fibroblasts; settings: human, primary skin fibroblasts (non-tumorous), Primer fibroblast Cell viability (% of controll), 72 h, dose–response, individual replicates
[2] = system: non-tumorous primary fibroblast cells; experiment: as above; settings: for Primer fibroblast Cell viability (% of controll): dose–response, individual replicates; for IC50: Homo sapiens, Fibroblast
[3] = CellTiter-Glo cell viability assay, HEK293T WT; settings: human, HEK293T WT cells, HEK293T WT Cell viability (% of controll), 72 h, dose–response, individual replicates
Procedure: (§1) Primary fibroblast cultures were prepared from human skin biopsies and maintained in DMEM supplemented with 10% FBS, 1% penicillin-streptomycin, and 1% MEM Non-Essential Amino Acids Solution (Thermo Fisher Scientific). […] All cell lines were cultured in a humidified atmosphere at 37 °C and 5% CO2, passaged twice a week, and the experiments were performed on cells between passage 5 and 15. The cell lines were routinely screened for the absence of mycoplasma infection (DAPI staining).
(§2) The effects of the synthesized compounds on cell viability were measured using the CellTiter-Glo® luminescent cell viability assay (Promega, Madison, WI, USA), according to the manufacturer’s instructions. Briefly, cells were seeded onto a flat-bottomed, white 96-well plate (BRANDplates, cat. no.: 781965)), with the following densities: PANC-1: 750 cells/well, Fadu: 2000 cells/well, primary fibroblasts: 2000 cells/well, HEK293T WT: 1000 cells/well, HEK293T CLPP^−/−: 2500 cells/well. After seeding, cells were incubated for a further 48 h before treatment. Cells were treated with the compounds for 72 h. Three concentrations (25.0 µM; 8.3 µM; 2.8 µM) were applied during the initial cell viability screening, while for the determination of dose–response curves, 1.5-fold serially diluted compound concentrations were applied (range: 26 µM–0.7 µM). After treatment, the luminescence signal was recorded using a microplate reader (BioTek Synergy 2 Multi-Mode Reader, BioTek, Winooski, VT, USA).
(§3) Data analysis was performed using GraphPad Prism 9.5.0 software (GraphPad Software, San Diego, CA, USA). […] The dose–response curves were generated by four-parameter nonlinear regression, and the IC50 values were determined as the means ± SEM of the best-fit values of 3 independent measurements. The R^2 values were consistently above 0.93, indicating a strong fit of the model to the experimental data (Supplementary S.89). […] Dunnett’s post hoc test was applied to adjust for multiple comparisons, minimizing the likelihood of false positive results. Assumptions for ANOVA, including normality (assessed via QQ plots) and homogeneity of variance (tested using the Brown–Forsythe test), were verified. The following significance levels were applied: * p < 0.05, ** p < 0.01, *** p < 0.001, **** p < 0.0001. […] The tumor selectivity of the compounds was quantitatively characterized by the selectivity index (SI). This parameter was calculated as the ratio of the average best-fit IC50 value for primary fibroblasts and the best-fit IC50 value for the corresponding tumor cells (PANC-1 or Fadu).

HEK293T WT cells = experiment: CellTiter-Glo cell viability assay, HEK293T WT; settings: for HEK293T WT Cell viability (% of controll): dose–response, individual replicates
Procedure: as §1, §2, §3

PANC-1 cells = experiment: CellTiter-Glo luminescent cell viability assay, PANC-1; settings: 72 h, dose–response, individual replicates

## CNCC#Cc1cccc(CN2C(=O)C3=C(CCN(Cc4ccc(-n5cc(-c6ccccc6)nn5)cc4)C3)N3CCN=C23)c1 [38b]
[1]; 0.7 μM
  viability at 72 h, 0.7 µM: 103%
[1]; 1 μM
  viability at 72 h, 1 µM: 112%
[1]; 1.5 μM
  viability at 72 h, 1.5 µM: 106%
[1]; 2.3 μM
  viability at 72 h, 2.3 µM: 116%
[1]; 3.4 μM
  viability at 72 h, 3.4 µM: 112%
[1]; 5.1 μM
  viability at 72 h, 5.1 µM: 6%
[1]; 7.7 μM
  viability at 72 h, 7.7 µM: 0%
[1]; 17.3 μM
  viability at 72 h, 17.3 µM: 0%
[1]; 26 μM
  viability at 72 h, 26 µM: 0%
[2]; 0.7 μM, 72 h
  Primer fibroblast Cell viability (% of controll): 107 % of controll and 109 % of controll
[2]; 1 μM, 72 h
  Primer fibroblast Cell viability (% of controll): 117 % of controll and 101 % of controll
[2]; 1.5 μM, 72 h
  Primer fibroblast Cell viability (% of controll): 118 % of controll
[2]; 2.3 μM, 72 h
  Primer fibroblast Cell viability (% of controll): 107 % of controll
[2]; 3.4 μM, 72 h
  Primer fibroblast Cell viability (% of controll): 110 % of controll and 101 % of controll
[2]; 5.1 μM, 72 h
  Primer fibroblast Cell viability (% of controll): 5 % of controll and 8 % of controll
[2]; 7.7 μM, 72 h
  Primer fibroblast Cell viability (% of controll): 0 % of controll
[2]; 17.3 μM, 72 h
  Primer fibroblast Cell viability (% of controll): 0 % of controll
[2]; 26 μM, 72 h
  Primer fibroblast Cell viability (% of controll): 0 % of controll
[2]; 72 h, read-out: IC50 Value ± SEM Primary Fibroblast, 72 h treatment, best-fit values, n = 3
  IC50: 4.4 ± 0.23 µM
[2]; read-out: Primary fibroblast IC50 values, Mean, mean of independently fitted replicate IC50 values (Supplement S.6), ONC201 value mathematically estimated from inflection point
  IC50: 4.45 µM
[3]; 0.4 μM
  viability at 72 h, 0.4 µM: 121%
[3]; 0.6 μM
  viability at 72 h, 0.6 µM: 107%
[3]; 1.0 μM
  viability at 72 h, 1 µM: 109%
[3]; 1.6 μM
  viability at 72 h, 1.6 µM: 64%
[3]; 4.0 μM
  viability at 72 h, 4 µM: 0%
[3]; 6.4 μM
  viability at 72 h, 6.4 µM: 0%
[3]; 16.25 μM
  viability at 72 h, 16.25 µM: 0%
[3]; 26 μM
  viability at 72 h, 26 µM: 0%
HEK293T WT cells; 0.4 μM, 72 h
  HEK293T WT Cell viability (% of controll): 116 % of controll and 117 % of controll and 121 % of controll
HEK293T WT cells; 0.6 μM, 72 h
  HEK293T WT Cell viability (% of controll): 110 % of controll and 120 % of controll and 116 % of controll
HEK293T WT cells; 1.0 μM, 72 h
  HEK293T WT Cell viability (% of controll): 110 % of controll and 102 % of controll
HEK293T WT cells; 1.6 μM, 72 h
  HEK293T WT Cell viability (% of controll): 66 % of controll and 67 % of controll and 83 % of controll
HEK293T WT cells; 2.5 μM, 72 h
  HEK293T WT Cell viability (% of controll): 6 % of controll and 15 % of controll and 12 % of controll (2×)
HEK293T WT cells; 4.0 μM, 72 h
  HEK293T WT Cell viability (% of controll): 0 % of controll
HEK293T WT cells; 6.4 μM, 72 h
  HEK293T WT Cell viability (% of controll): 0 % of controll
HEK293T WT cells; 16.25 μM, 72 h
  HEK293T WT Cell viability (% of controll): 0 % of controll
HEK293T WT cells; 26 μM, 72 h
  HEK293T WT Cell viability (% of controll): 0 % of controll
HEK293T WT cells; Homo sapiens, HEK-293T, 72 h, read-out: IC50 (µM) HEK293T WT, 72 h treatment, ± SEM, best-fit values, n = 4
  IC50: 1.7 ± 0.02 µM
HEK293T WT cells; Homo sapiens, HEK-293T, read-out: HEK293T WT IC50 values, Mean, mean of independently fitted replicate IC50 values (Supplement S.6)
  IC50: 1.67 µM
HEK293T WT cells; Homo sapiens, HEK-293T, read-out: HEK293T WT IC50 values, individual replicates n1-n4, IC50 independently determined for each replicate measurement (Supplement S.6)
  IC50: 1.61 µM
HEK293T WT cells; read-out: HEK293T WT IC50 values, individual replicates n1-n4, IC50 independently determined for each replicate measurement (Supplement S.6)
  IC50: 1.66 µM and 1.63 µM and 1.79 µM
PANC-1 cells; 0.7 μM
  PANC-1 Cell viability (% of controll): 103 % of controll
PANC-1 cells; 1 μM
  PANC-1 Cell viability (% of controll): 108 % of controll
PANC-1 cells; 1.5 μM
  PANC-1 Cell viability (% of controll): 107 % of controll and 116 % of controll
PANC-1 cells; 2.3 μM
  PANC-1 Cell viability (% of controll): 79 % of controll and 98 % of controll
PANC-1 cells; 3.4 μM
  PANC-1 Cell viability (% of controll): 0 % of controll and 1 % of controll
PANC-1 cells; 5.1 μM
  PANC-1 Cell viability (% of controll): 0 % of controll
PANC-1 cells; 7.7 μM
  PANC-1 Cell viability (% of controll): 0 % of controll
PANC-1 cells; 17.3 μM
  PANC-1 Cell viability (% of controll): 0 % of controll
